Reference: BindingDB's records for PubMed 8496821 (Fujisawa Pharmaceutical, 1993)

Assays:
[1] = molecular target: 5-hydroxytryptamine receptor 2A (Rattus norvegicus, UniProt P14842)
D(2) dopamine receptor = D(2) dopamine receptor (Rattus norvegicus, UniProt P61169)
Chain of D(2) dopamine receptor (P61169 whole entry): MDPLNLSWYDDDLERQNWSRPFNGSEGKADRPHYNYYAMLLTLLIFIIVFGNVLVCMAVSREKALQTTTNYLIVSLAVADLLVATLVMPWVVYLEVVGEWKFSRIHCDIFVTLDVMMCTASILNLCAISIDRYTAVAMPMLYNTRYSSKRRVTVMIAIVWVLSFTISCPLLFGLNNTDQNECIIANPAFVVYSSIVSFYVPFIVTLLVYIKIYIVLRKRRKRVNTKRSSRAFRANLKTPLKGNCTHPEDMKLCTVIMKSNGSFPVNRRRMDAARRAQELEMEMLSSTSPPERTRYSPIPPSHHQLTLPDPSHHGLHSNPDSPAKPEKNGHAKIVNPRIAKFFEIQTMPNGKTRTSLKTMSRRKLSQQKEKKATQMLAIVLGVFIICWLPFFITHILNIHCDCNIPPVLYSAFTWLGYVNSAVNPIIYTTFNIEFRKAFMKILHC

Chain of 5-hydroxytryptamine receptor 2A (P14842 whole entry): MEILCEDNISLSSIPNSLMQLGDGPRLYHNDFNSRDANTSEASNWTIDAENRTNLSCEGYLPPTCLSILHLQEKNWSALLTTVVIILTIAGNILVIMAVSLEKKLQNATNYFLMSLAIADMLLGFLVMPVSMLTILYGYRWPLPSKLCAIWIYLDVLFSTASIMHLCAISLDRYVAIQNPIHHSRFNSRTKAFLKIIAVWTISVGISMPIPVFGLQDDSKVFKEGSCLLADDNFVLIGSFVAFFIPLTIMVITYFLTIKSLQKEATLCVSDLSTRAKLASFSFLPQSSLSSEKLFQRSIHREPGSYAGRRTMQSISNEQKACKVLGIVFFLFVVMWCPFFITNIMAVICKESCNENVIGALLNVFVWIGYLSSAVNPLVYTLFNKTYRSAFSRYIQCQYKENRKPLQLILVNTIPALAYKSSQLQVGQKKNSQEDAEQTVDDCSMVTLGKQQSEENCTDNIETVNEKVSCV

Ki [1]: 0.01 nM | Ki (D(2) dopamine receptor): 0.01 nM
Structure (SMILES): Cc1[nH]cnc1CC1CCc2c(C)c3ccccc3n2C1=O (configuration not stated) [CAS_125368]
